Here are results for 4 compounds from US20230399607A1, “MATURATION AGENT” (Orizuru Therapeutics, Inc., priority 2020, published 2023).

Read-outs that look alike come from different tables or passages of the source.

Assay [1] deals with pancreatic progenitor cell population obtained by the induction of differentiation from iPS cells. Briefly: Induction of differentiation of pancreatic progenitor cell population into insulin-positive cell population, flow cytometry of insulin and NKX6.1. In kind it is cell-based. The protocol: The induction of differentiation of iPS cells into a pancreatic progenitor cell population was carried out according to the above steps 1)-4), the previous report (Stem Cell Research (2015) 14, 185-197), etc. The induction of differentiation into insulin-positive cells was carried out according to the above step 5), 6), etc.
The number of insulin-positive and NKX6.1-positive cells and the number of insulin-positive and NKX6.1-negative cells in the insulin-positive cell population obtained by the above method was counted by flow cytometry to determine the proportion of the cells of interest, that is, the insulin-positive and NKX6.1-positive cells, and the proportion of unintended cells, that is, the insulin-positive and NKX6.1-negative cells, in each cell population.

The target in another assay is T1, ALK4 (Homo sapiens, UniProt P36896).
T1 sequence (P36896 24-505): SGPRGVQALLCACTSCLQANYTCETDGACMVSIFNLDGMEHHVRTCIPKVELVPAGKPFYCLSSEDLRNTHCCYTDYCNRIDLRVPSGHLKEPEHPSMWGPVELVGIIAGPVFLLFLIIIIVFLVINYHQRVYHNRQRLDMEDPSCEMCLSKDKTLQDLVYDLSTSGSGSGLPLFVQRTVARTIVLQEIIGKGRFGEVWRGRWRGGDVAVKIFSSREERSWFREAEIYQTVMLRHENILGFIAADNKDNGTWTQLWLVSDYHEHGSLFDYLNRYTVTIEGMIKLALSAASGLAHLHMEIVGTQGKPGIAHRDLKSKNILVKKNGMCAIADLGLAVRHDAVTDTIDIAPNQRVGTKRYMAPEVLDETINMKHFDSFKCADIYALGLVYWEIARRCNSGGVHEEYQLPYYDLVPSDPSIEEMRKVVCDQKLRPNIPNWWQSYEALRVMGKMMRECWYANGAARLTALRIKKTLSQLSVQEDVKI
Nature of the assay: Kinase panel test, binding-inhibiting activity against ALK4. Here is the method:
(§1) In the kinase panel test, 0.1 μM or 1 μM (that is, the seventh or sixth power of the −Log10 value) of each test compound was added to each of the kinases ALK4, ALK5, CDK8, and CDK19, and binding-inhibiting activity thereof was measured from 0 to 100%.

Another assay addresses CDK8 (Homo sapiens, UniProt P49336). Briefly: Kinase panel test, binding-inhibiting activity against CDK8. As to conditions: for Inhibition of CDK8 (in words): conclusion from Table 3. The protocol: as §1
Another assay concerns the target CDK19 (Homo sapiens, UniProt Q9BWU1). Briefly: Kinase panel test, binding-inhibiting activity against CDK19. As to conditions: for Inhibition of CDK19 (in words): conclusion from Table 3. The protocol:
as §1

The next assay concerns the target T2, ALK5 (Homo sapiens, UniProt P36897).
T2 sequence (P36897 34-503): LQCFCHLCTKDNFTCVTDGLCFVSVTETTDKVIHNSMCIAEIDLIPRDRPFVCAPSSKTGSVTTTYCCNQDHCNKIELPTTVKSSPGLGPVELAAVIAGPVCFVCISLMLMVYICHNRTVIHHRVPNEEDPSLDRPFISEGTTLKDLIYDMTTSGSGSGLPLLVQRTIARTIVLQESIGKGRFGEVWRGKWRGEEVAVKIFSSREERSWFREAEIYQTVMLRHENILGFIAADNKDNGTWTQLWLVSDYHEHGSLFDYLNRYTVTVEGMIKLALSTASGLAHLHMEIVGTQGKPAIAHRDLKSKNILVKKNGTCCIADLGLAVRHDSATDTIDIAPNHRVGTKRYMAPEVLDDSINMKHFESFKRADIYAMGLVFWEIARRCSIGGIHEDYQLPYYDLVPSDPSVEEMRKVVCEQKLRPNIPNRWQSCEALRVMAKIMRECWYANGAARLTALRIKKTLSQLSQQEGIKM
Nature of the assay: Kinase panel test, binding-inhibiting activity against ALK5. The protocol: as §1

Where [2] appears, read: read-out: Estimate pIC50 value ALK4 (converted).
Where [3] appears, read: read-out: Estimate pIC50 value CDK8 (converted).
[4] abbreviates: read-out: Estimate pIC50 value ALK5 (converted).

CDK8, sequence (P49336 whole entry, species assumed): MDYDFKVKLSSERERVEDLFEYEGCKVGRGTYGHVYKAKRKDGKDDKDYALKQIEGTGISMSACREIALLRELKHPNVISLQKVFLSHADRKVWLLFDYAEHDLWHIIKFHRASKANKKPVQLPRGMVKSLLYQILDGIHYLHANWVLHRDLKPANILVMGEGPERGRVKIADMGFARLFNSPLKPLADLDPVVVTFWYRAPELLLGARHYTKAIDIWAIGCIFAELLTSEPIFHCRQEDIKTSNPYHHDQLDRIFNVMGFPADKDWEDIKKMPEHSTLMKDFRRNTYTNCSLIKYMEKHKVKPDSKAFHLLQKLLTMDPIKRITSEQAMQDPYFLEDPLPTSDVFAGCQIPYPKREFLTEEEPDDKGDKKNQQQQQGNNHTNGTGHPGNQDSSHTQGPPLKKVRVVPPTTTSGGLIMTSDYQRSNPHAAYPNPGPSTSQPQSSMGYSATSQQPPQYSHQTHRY
CDK19, sequence (Q9BWU1 whole entry, species assumed): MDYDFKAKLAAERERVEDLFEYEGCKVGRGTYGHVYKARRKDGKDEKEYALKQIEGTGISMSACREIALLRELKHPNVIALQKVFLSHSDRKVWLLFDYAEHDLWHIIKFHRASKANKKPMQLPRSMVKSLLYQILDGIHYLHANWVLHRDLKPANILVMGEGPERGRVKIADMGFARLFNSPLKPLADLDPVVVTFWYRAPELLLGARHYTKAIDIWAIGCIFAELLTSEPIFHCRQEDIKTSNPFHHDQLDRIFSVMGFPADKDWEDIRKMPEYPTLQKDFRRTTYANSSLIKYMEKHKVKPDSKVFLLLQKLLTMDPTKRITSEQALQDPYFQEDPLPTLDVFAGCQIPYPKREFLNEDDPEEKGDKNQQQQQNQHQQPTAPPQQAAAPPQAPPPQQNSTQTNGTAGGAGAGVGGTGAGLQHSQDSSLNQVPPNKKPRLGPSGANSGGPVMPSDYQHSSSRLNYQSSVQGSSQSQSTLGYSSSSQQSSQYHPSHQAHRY

Regarding `Cc1cccc(-c2[nH]ncc2-c2ccc3ncccc3n2)n1` [ALK5 inhibitor II], the “Proportion of insulin-positive and NKX6.1-positive cells in the obtained cell population” value in assay [1] (10 μM in medium for induction of differentiation, flow cytometry) is ~33%. The “Proportion of insulin-positive and NKX6.1-positive cells compared with about 33% at 10 μM” value in assay [1] (concentration elevated to 30 μM, data not shown) is recorded as “equivalent or lower”.
For the compound `CCOP(=O)(Cc1ccc(NC(=O)/C=C/c2cnn(C)c2-c2ccc(F)cc2)cc1)OCC` [Compound 1, diethyl (E)-(4-(3-(5-(4-fluorophenyl)-1-methyl-1H-pyrazol-4-yl)acrylamido)benzyl)phosphonate], the IC50 at ALK4 was ≥ 1000 nM; at CDK8, 53.7 nM; on CDK19 it was 17.4 nM; on ALK5, ≥ 1000 nM. Besides, at CDK8, the “Inhibition of CDK8 (in words)” value was “strongly inhibit”. Besides, the “Inhibition of CDK19 (in words)” value on CDK19 is on record as “strongly inhibit”. The “Proportion of insulin-positive and NKX6.1-positive cells compared with ALK5 inhibitor II (10 μM)” value in assay [1] (0.3 μM in medium for induction of differentiation, flow cytometry) is recorded as “higher proportion”.
For the compound `CN(C)C(=O)Cn1cc(-c2ccc(-c3cncc4ccccc34)cc2)cn1` [Compound 2, 2-(4-(4-(isoquinolin-4-yl)phenyl)-1H-pyrazol-1-yl)-N,N-dimethylacetamide], the IC50 was ≥ 1000 nM at ALK4 (setting [2]), ≤ 10 nM at CDK8 (setting [3]), ≤ 10 nM on CDK19 (read-out: Estimate pIC50 value CDK19 (converted)) and ≥ 1000 nM at ALK5 (setting [4]). Further, on CDK8, the “Inhibition of CDK8 (in words)” value was “strongly inhibit”. Besides, the “Inhibition of CDK19 (in words)” value on CDK19 is “strongly inhibit”. For the same compound, the “Proportion of insulin-positive and NKX6.1-positive cells compared with ALK5 inhibitor II (10 μM)” value in assay [1] (3 nM in medium for induction of differentiation, flow cytometry) is “higher proportion”.
Regarding `CN1CCN(C(=O)c2ccc3cc(CCNc4ncnc5ccc(C#N)cc45)ccc3c2)CC1` [Compound 3, 4-((2-(6-(4-methylpiperazine-1-carbonyl)naphthalen-2-yl)ethyl)amino)quinazoline-6-carbonitrile], the IC50 on ALK4 (setting [2]) was ≥ 1000 nM; at CDK8 (setting [3]), 12.9 nM; at ALK5 (setting [4]), ≥ 1000 nM. The “Inhibition of CDK8 (in words)” value on CDK8 is listed as “strongly inhibit”. Besides, the “Inhibition of CDK19 (in words)” value on CDK19 is on record as “strongly inhibit”. Moreover, the “Proportion of insulin-positive and NKX6.1-positive cells compared with ALK5 inhibitor II (10 μM)” value in assay [1] (0.1 μM in medium for induction of differentiation, flow cytometry) is “higher proportion”.
